Laboratory results: patent publication US8173812B2, “Quinolines and their therapeutic use” (Pulmagen Therapeutics (Asthma) Limited, priority 2007, dated 2012)
pIC50: −log10 of the molar value.

Target: T1, CRTH2 receptor (Homo sapiens, UniProt Q9Y5Y4)
T1 sequence (Q9Y5Y4 1-395): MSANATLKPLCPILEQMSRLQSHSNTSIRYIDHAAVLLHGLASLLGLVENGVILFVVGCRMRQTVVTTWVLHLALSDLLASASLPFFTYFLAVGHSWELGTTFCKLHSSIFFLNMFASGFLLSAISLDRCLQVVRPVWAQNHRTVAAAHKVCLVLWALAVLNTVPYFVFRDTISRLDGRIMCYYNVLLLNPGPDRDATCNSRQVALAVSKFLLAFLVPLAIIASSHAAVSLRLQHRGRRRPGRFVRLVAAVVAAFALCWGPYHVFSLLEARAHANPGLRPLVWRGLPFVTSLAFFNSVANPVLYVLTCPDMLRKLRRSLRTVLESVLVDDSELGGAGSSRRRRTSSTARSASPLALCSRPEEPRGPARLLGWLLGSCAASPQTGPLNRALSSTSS
Assay: CRTH2 radioligand binding assay ([3H]-PGD2 displacement, SPA)
Details: HEK cell membranes expressing the CRTH2 receptor, 1 nM [3H]-PGD2
Protocol: Radioligand Binding Assay
The receptor binding assay is performed in a final volume of 200 μL binding buffer [10 mM BES (pH 7.4), 1 mM EDTA, 10 mM manganese chloride, 0.01% BSA] and 1 nM [^3H]-PGD2 (Amersham Biosciences UK Ltd). Ligands are added in assay buffer containing a constant amount of DMSO (1% by volume). Total binding is determined using 1% by volume of DMSO in assay buffer and non-specific binding is determined using 10 μM of unlabeled PGD2 (Sigma). Human embryonic kidney (HEK) cell membranes (3.5 μg) expressing the CRTH2 receptor are incubated with 1.5 mg wheatgerm agglutinin SPA beads and 1 nM [^3H]-PGD2 (Amersham Biosciences UK Ltd) and the mixture incubated for 3 hours at room temperature. Bound [^3H]-PGD2 is detected using a Microbeta TRILUX liquid scintillation counter (Perkin Elmer). Compound IC50 value is determined using a 6-point dose response curve in duplicate with a semi-log compound dilution series. IC50 calculations are performed using Excel and XLfit (Microsoft), and this value is used to determine a Ki value for the test compound using the Cheng-Prusoff equation.

Structure (SMILES) | pIC50
CCc1nc2c(F)ccc(OCC(=O)O)c2c(OC(F)F)c1Cc1ccc(-n2cccn2)cc1 [Example 1, [4-difluoromethoxy-2-ethyl-8-fluoro-3-(4-pyrazol-1-ylbenzyl)quinolin-5-yloxy]acetic acid] | 8.27
CCc1nc2c(F)ccc(OCC(=O)O)c2c(OC(F)F)c1Cc1ccc(-c2ncco2)cc1 [Example 2, [4-difluoromethoxy-2-ethyl-8-fluoro-3-(4-oxazol-2-ylbenzyl)quinolin-5-yloxy]acetic acid] | 8.20
